Measurements taken from article PMC11619344 (Antimicrobial Agents and Chemotherapy, 2024).
Converted amounts (≈) assume the structure as drawn.

Assays:
Type in all cases: cell-based
[1] = tested on: K. pneumoniae ST512/KPC-31 (KPC-3 D179Y) parental clinical isolate; assay: MIC, broth microdilution; conditions: Klebsiella pneumoniae
[2] = tested on: ST512/KPC-31 mutant IMI 1.1; assay: MIC, broth microdilution; conditions: Klebsiella pneumoniae
[3] = tested on: ST512/KPC-31 mutant IMI 1.2; assay: MIC, broth microdilution; conditions: Klebsiella pneumoniae
[4] = tested on: ST512/KPC-31 mutant IMI 2.1; assay: MIC, broth microdilution; conditions: Klebsiella pneumoniae
[5] = tested on: ST512/KPC-31 mutant IMI 2.2; assay: MIC, broth microdilution; conditions: Klebsiella pneumoniae
[6] = tested on: ST512/KPC-31 mutant IMI 3.1; assay: MIC, broth microdilution; conditions: Klebsiella pneumoniae
[7] = tested on: ST512/KPC-31 mutant IMI 3.2; assay: MIC, broth microdilution; conditions: Klebsiella pneumoniae
[8] = tested on: K. pneumoniae ST258/KPC-35 (KPC-2 L169P) parental clinical isolate; assay: MIC, broth microdilution; conditions: Klebsiella pneumoniae
[9] = tested on: ST258/KPC-35 mutant IMI 1.1; assay: MIC, broth microdilution; conditions: Klebsiella pneumoniae
[10] = tested on: ST258/KPC-35 mutant IMI 1.2; assay: MIC, broth microdilution; conditions: Klebsiella pneumoniae
[11] = tested on: ST258/KPC-35 mutant IMI 2.1; assay: MIC, broth microdilution; conditions: Klebsiella pneumoniae
[12] = tested on: ST258/KPC-35 mutant IMI 2.2; assay: MIC, broth microdilution; conditions: Klebsiella pneumoniae
[13] = tested on: ST258/KPC-35 mutant IMI 3.1; assay: MIC, broth microdilution; conditions: Klebsiella pneumoniae
[14] = tested on: ST258/KPC-35 mutant IMI 3.2; assay: MIC, broth microdilution; conditions: Klebsiella pneumoniae
[15] = tested on: E. coli HB4 KPC-2 L169A; assay: MIC of recombinant strains; conditions: Escherichia coli, HB4KPC2L169A; E. coli HB4 expressing KPC-2 L169A in pUCP24
Description: (§1) 14.0 (www.eucast.org/clinical_breakpoints).
(§2) Recombinant strains were selected in 10 mg/L of gentamicin-LB agar plates. The β-lactam MICs were determined for the transformants according to the above-described methodology.

[16] = tested on: E. coli HB4 KPC-2 L169T; assay: MIC of recombinant strains; conditions: Escherichia coli, HB4KPC2L169T; E. coli HB4 expressing KPC-2 L169T in pUCP24
Description: as §1, §2

[17] = tested on: E. coli HB4 KPC-2; assay: MIC of recombinant strains; conditions: Escherichia coli, HB4KPC2; E. coli HB4 expressing KPC-2 in pUCP24
Description: as §1, §2

[18] = tested on: E. coli HB4 KPC-3 D179N; assay: MIC of recombinant strains; conditions: Escherichia coli, HB4KPC3D179N; E. coli HB4 expressing KPC-3 D179N in pUCP24
Description: as §1, §2

[19] = tested on: E. coli HB4 KPC-31 (KPC-3 D179Y); assay: MIC of recombinant strains; conditions: Escherichia coli; E. coli HB4 expressing KPC-31 (KPC-3 D179Y) in pUCP24
Description: as §1, §2

[20] = tested on: E. coli HB4 KPC-35 (KPC-2 L169P); assay: MIC of recombinant strains; conditions: Escherichia coli; E. coli HB4 expressing KPC-35 (KPC-2 L169P) in pUCP24
Description: as §1, §2

[21] = tested on: E. coli HB4 KPC-3; assay: MIC of recombinant strains; conditions: Escherichia coli, HB4KPC3; E. coli HB4 expressing KPC-3 in pUCP24
Description: as §1, §2

[22] = tested on: E. coli HB4; assay: MIC of recombinant strains; conditions: Escherichia coli; E. coli HB4 (OmpC- and OmpF-deficient), no KPC
Description: as §1, §2

Compound	MIC [1]	MIC [2]	MIC [3]	MIC [4]	MIC [5]	MIC [6]	MIC [7]	MIC [8]	MIC [9]	MIC [10]	MIC [11]	MIC [12]	MIC [13]	MIC [14]	MIC [15]	MIC [16]	MIC [17]	MIC [18]	MIC [19]	MIC [20]	other results
NCC[C@H](O)C(=O)N[C@@H]1C[C@H](N)[C@@H](O[C@H]2O[C@H](CN)[C@@H](O)[C@H](O)[C@H]2O)[C@H](O)[C@H]1O[C@H]1O[C@H](CO)[C@@H](O)[C@H](N)[C@H]1O [AMI, amikacin]	> 32 µg/mL	> 32 µg/mL	> 32 µg/mL	> 32 µg/mL	> 32 µg/mL	> 32 µg/mL	> 32 µg/mL	> 32 µg/mL	> 32 µg/mL	> 32 µg/mL	> 32 µg/mL	> 32 µg/mL	> 32 µg/mL	> 32 µg/mL							
C[C@H]1[C@H](NC(=O)/C(=N\OC(C)(C)C(=O)O)c2csc(N)n2)C(=O)N1S(=O)(=O)O [AZT, aztreonam]		> 16 µg/mL	> 16 µg/mL	> 16 µg/mL	> 16 µg/mL	> 16 µg/mL	> 16 µg/mL		> 16 µg/mL	> 16 µg/mL	> 16 µg/mL	> 16 µg/mL	> 16 µg/mL	> 16 µg/mL	64 µg/mL	128 µg/mL	512 µg/mL	8 µg/mL	4 µg/mL	16 µg/mL	MIC [21]: 256 µg/mL; MIC [22]: ≤ 0.5 µg/mL
CC(C)(O/N=C(\C(=O)N[C@@H]1C(=O)N2C(C(=O)[O-])=C(C[n+]3ccccc3)CS[C@H]12)c1csc(N)n1)C(=O)O [CAZ, ceftazidime]	> 256 µg/mL	> 256 µg/mL	> 256 µg/mL	> 256 µg/mL	> 256 µg/mL	> 256 µg/mL	> 256 µg/mL	> 256 µg/mL	256 µg/mL (≈ 468 µM)	256 µg/mL (≈ 468 µM)	128 µg/mL (≈ 234 µM)	128 µg/mL (≈ 234 µM)	64 µg/mL (≈ 117 µM)	128 µg/mL (≈ 234 µM)	> 64 µg/mL	> 64 µg/mL	> 64 µg/mL	> 64 µg/mL	> 64 µg/mL	> 64 µg/mL	MIC [21]: > 64 µg/mL; MIC [22]: 1 µg/mL
C[C@@H](O)[C@H]1C(=O)N2C(C(=O)O)=C(S[C@@H]3CN[C@H](C(=O)Nc4cccc(C(=O)O)c4)C3)[C@H](C)[C@H]12 [ETP, ertapenem]	> 8 µg/mL	> 8 µg/mL	> 8 µg/mL	> 8 µg/mL	> 8 µg/mL	> 8 µg/mL	> 8 µg/mL	> 8 µg/mL	> 8 µg/mL	> 8 µg/mL	> 8 µg/mL	> 8 µg/mL	> 8 µg/mL	> 8 µg/mL							
CO/N=C(\C(=O)N[C@@H]1C(=O)N2C(C(=O)[O-])=C(C[N+]3(C)CCCC3)CS[C@H]12)c1csc(N)n1 [FEP, cefepime]		> 16 µg/mL	> 16 µg/mL	> 16 µg/mL	> 16 µg/mL	> 16 µg/mL	> 16 µg/mL		> 16 µg/mL	> 16 µg/mL	> 16 µg/mL	> 16 µg/mL	> 16 µg/mL	> 16 µg/mL	64 µg/mL	128 µg/mL	256 µg/mL	16 µg/mL	32 µg/mL	64 µg/mL	MIC [21]: 128 µg/mL; MIC [22]: ≤ 0.5 µg/mL
CNC(C)C1CCC(N)C(OC2C(N)CC(N)C(OC3OCC(C)(O)C(NC)C3O)C2O)O1 (stereo not shown) [GEN, gentamicin]	4 µg/mL (≈ 8.38 µM)	4 µg/mL (≈ 8.38 µM)	8 µg/mL (≈ 16.8 µM)	4 µg/mL (≈ 8.38 µM)	8 µg/mL (≈ 16.8 µM)	4 µg/mL (≈ 8.38 µM)	4 µg/mL (≈ 8.38 µM)	≤ 2 µg/mL	4 µg/mL (≈ 8.38 µM)	4 µg/mL (≈ 8.38 µM)	4 µg/mL (≈ 8.38 µM)	4 µg/mL (≈ 8.38 µM)	4 µg/mL (≈ 8.38 µM)	4 µg/mL (≈ 8.38 µM)							
C[C@H]1COc2c(N3CCN(C)CC3)c(F)cc3c(=O)c(C(=O)O)cn1c23 [LEV, levofloxacin]	> 8 µg/mL	> 8 µg/mL	> 8 µg/mL	> 8 µg/mL	> 8 µg/mL	> 8 µg/mL	> 8 µg/mL	> 8 µg/mL	> 8 µg/mL	> 8 µg/mL	> 8 µg/mL	> 8 µg/mL	> 8 µg/mL	> 8 µg/mL							
C[C@@H](O)[C@H]1C(=O)N2C(C(=O)O)=C(S[C@@H]3CN[C@H](C(=O)N(C)C)C3)[C@H](C)[C@H]12 [MEM, meropenem]	4 µg/mL (≈ 10.4 µM)	> 64 µg/mL	> 64 µg/mL	> 64 µg/mL	> 64 µg/mL	32 µg/mL (≈ 83.4 µM)	32 µg/mL (≈ 83.4 µM)	4 µg/mL (≈ 10.4 µM)	> 64 µg/mL	> 64 µg/mL	> 64 µg/mL	> 64 µg/mL	64 µg/mL (≈ 167 µM)	64 µg/mL (≈ 167 µM)	16 µg/mL	16 µg/mL	> 64 µg/mL	0.25 µg/mL	0.5 µg/mL	2 µg/mL	MIC [21]: > 64 µg/mL; MIC [22]: ≤ 0.06 µg/mL
NC[C@H]1O[C@H](O[C@H]2[C@H](O)[C@@H](O[C@H]3O[C@H](CO)[C@@H](O)[C@H](N)[C@H]3O)[C@H](N)C[C@@H]2N)[C@H](N)C[C@@H]1O [TOB, tobramycin]	> 8 µg/mL	> 8 µg/mL	> 8 µg/mL	> 8 µg/mL	> 8 µg/mL	> 8 µg/mL	> 8 µg/mL	> 8 µg/mL	> 8 µg/mL	> 8 µg/mL	> 8 µg/mL	> 8 µg/mL	> 8 µg/mL	> 8 µg/mL							
